Measurements reported in the supplement of paper PMC7695840.
Where a name gives a salt, the structure may show the parent alone.

Key:
[1] = system: Staphylococcus aureus MW2 (mecA+); assay: IC50 (growth, competition assay); conditions: cefoxitin: subinhibitory
In short: (§1)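 Two fluorescent S. aureus MW2 strains, one carrying and one lacking the resistance gene, were pre-induced, mixed 1:1 and grown unshaken in LB in 1536-well plates for 20 h at 37 °C and 90% humidity with a subinhibitory drug dose set each day. Compounds were tested on five- or nine-point 2-fold gradients in two dye-swapped replicates. DsRed (540/590) and GFP (485/520) signals were scaled per plate between the medians of single-strain controls, and No Treatment was then set to 0.5. For each strain, IC50 was taken as the dose that halved the No Treatment signal, or else the maximal signal.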

[2] = system: Staphylococcus aureus MW2 delta-mecA (mecA-); assay: IC50 (growth, competition assay); conditions: cefoxitin: subinhibitory
In short: as §1

SMILES | IC50 ([1]; fluorescent label: DsRed) | IC50 ([1]; fluorescent label: GFP) | IC50 ([2]; fluorescent label: DsRed) | IC50 ([2]; fluorescent label: GFP)
O=c1oc2ccccc2c(O)c1Cc1c(O)c2ccccc2oc1=O [DICUMOL] | 11.6 µM | 18.2 µM | 14 µM | 27 µM
CN1CCN(c2cc3c(cc2F)c(=O)c(C(=O)O)cn3-c2ccc(F)cc2)CC1 [DICURAL] | < 9.85 µM | < 9.85 µM | < 9.85 µM | < 9.85 µM
COc1cc(C)c(C(=O)Oc2cc(C)c(C(=O)O)c(O)c2C)c(OC)c1C [DIFFRACTAIC ACID] | 31 µM | 27.5 µM | 12.8 µM | 15.7 µM
Cc1c(O)c(O)cc2c1CC=C1[C@@]2(C)CC[C@@]2(C)[C@@H]3C[C@](C)(C(=O)O)CC[C@]3(C)CC[C@]12C [DIHYDROCELASTROL] | < 9.85 µM | < 9.85 µM | < 9.85 µM | < 9.85 µM
CC(=O)Oc1cc2c(c(C)c1OC(C)=O)CC=C1[C@@]2(C)CC[C@@]2(C)C3C[C@](C)(C(=O)O)CC[C@]3(C)CC[C@]12C (some centres not stated) [DIHYDROCELASTRYL DIACETATE] | < 9.85 µM | < 9.85 µM | < 9.85 µM | < 9.85 µM
CC[C@H]1OC(=O)[C@H](C)[C@@H](O[C@H]2C[C@@](C)(OC)[C@@H](O)[C@H](C)O2)[C@H](C)[C@@H](O[C@@H]2O[C@H](C)C[C@H](N(C)C)[C@H]2O)[C@](C)(O)C[C@@H](C)[C@@H]2N[C@@H](COCCOC)O[C@H]([C@H]2C)[C@]1(C)O [DYNABAC] | 21.4 µM | 21.3 µM | < 9.85 µM | < 9.85 µM
Cc1onc(-c2c(Cl)cccc2Cl)c1C(=O)N[C@@H]1C(=O)N2[C@@H]1SC(C)(C)[C@@H]2C(=O)O [DYNAPEN] | < 9.85 µM | < 9.85 µM | < 9.85 µM | < 9.85 µM
CN1C[C@@H]2C[C@H]1CN2c1cc2c(cc1F)c(=O)c(C(=O)O)cn2C1CC1 [Danofloxacin Mesylate] | < 9.85 µM | < 9.85 µM | < 9.85 µM | < 9.85 µM
O=C(O)c1ccc(-n2nc(-c3ccccc3O)nc2-c2ccccc2O)cc1 [Deferasirox (Exjade)] | 91.6 µM | 57.1 µM | 22.6 µM | 24.3 µM
CN(C)[C@@H]1C(=O)C(C(N)=O)=C(O)[C@@]2(O)C(=O)C3=C(O)c4c(O)ccc(Cl)c4[C@@H](O)[C@H]3C[C@@H]12 [Demeclocycline hydrochloride] | < 9.85 µM | < 9.85 µM | < 9.85 µM | < 9.85 µM
Cc1cc(N)c2ccccc2[n+]1CCCCCCCCCC[n+]1c(C)cc(N)c2ccccc21 [Dequalinium Chloride] | < 9.85 µM | 11.3 µM | < 9.85 µM | < 9.85 µM
Cc1cc(N)c2ccccc2[n+]1CCCCCCCCCC[n+]1c(C)cc(N)c2ccccc21 [Dequalinium chloride hydrate] | < 9.85 µM | < 9.85 µM | < 9.85 µM | < 9.85 µM
Cc1onc(-c2c(Cl)cccc2Cl)c1C(=O)N[C@@H]1C(=O)N2[C@@H]1SC(C)(C)[C@@H]2C(=O)O [Dicloxacillin Sodium] | < 9.85 µM | < 9.85 µM | < 9.85 µM | < 9.85 µM
C[C@@H](O)[C@H]1C(=O)N2C(C(=O)O)=C(S[C@@H]3CN[C@H](CNS(N)(=O)=O)C3)[C@H](C)[C@H]12 [Doripenem Hydrate] | > 150 µM | > 150 µM | 137 µM | 130 µM
C[C@H]1O[C@@H](n2cc(F)c(=O)[nH]c2=O)[C@H](O)[C@@H]1O [Doxifluridine] | 3.93 µM | 11.1 µM | 0.661 µM | < 0.498 µM
C[C@H]1c2cccc(O)c2C(=O)C2=C(O)[C@]3(O)C(=O)C(C(N)=O)=C(O)[C@@H](N(C)C)[C@@H]3[C@@H](O)[C@@H]21 [Doxycycline HCl] | < 9.85 µM | < 9.85 µM | < 9.85 µM | < 9.85 µM
C[C@H]1c2cccc(O)c2C(=O)C2=C(O)[C@]3(O)C(=O)C(C(N)=O)=C(O)[C@@H](N(C)C)[C@@H]3[C@@H](O)[C@@H]21 [Doxycycline hydrochloride] | < 9.85 µM | < 9.85 µM | < 9.85 µM | < 9.85 µM
CCCCc1oc2ccc(NS(C)(=O)=O)cc2c1C(=O)c1ccc(OCCCN(CCCC)CCCC)cc1 [Dronedarone HCl (Multaq)] | 14.3 µM | 14.9 µM | 5.95 µM | 3.07 µM
O=c1c2ccccc2[se]n1-c1ccccc1 [EBSELEN] | < 9.85 µM | < 9.85 µM | < 9.85 µM | < 9.85 µM
CCOc1nc2cccc(C(=O)OCc3oc(=O)oc3C)c2n1Cc1ccc(-c2ccccc2-c2noc(=O)[nH]2)cc1 [EDARBI] | 18.7 µM | 58.9 µM | 12.8 µM | < 9.85 µM
C=C(CC)C(=O)c1ccc(OCC(=O)O)c(Cl)c1Cl [EDECRIN] | 34.1 µM | 36.7 µM | < 9.85 µM | < 9.85 µM
CN(C)CCC=C1c2ccccc2CCc2ccccc21 [ELAVIL] | 111 µM | 112 µM | 33.3 µM | 18.5 µM
CCCCCCCCCCCCCCCC(=O)OC[C@H](O)[C@H]1OC(=O)C(O)=C1O [EMPROVE] | 52.5 µM | 87.6 µM | < 9.85 µM | < 9.85 µM
Cc1cc(Nc2cc(N3CCN(C)CC3)nc(/C=C/c3ccccc3)n2)n[nH]1 [ENMD-2076] | 47.6 µM | 55.2 µM | 6.48 µM | 4.72 µM
O=[N+]([O-])c1ccc(O)c2ncccc12 [ENTEROCOL] | 16.2 µM | 54.4 µM | 38.4 µM | < 9.85 µM
O=C(O[C@@H]1Cc2c(O)cc(O)cc2O[C@@H]1c1ccc(O)c(O)c1)c1cc(O)c(O)c(O)c1 [EPICATECHIN MONOGALLATE] | 83.7 µM | 140 µM | 22.9 µM | 12.2 µM
O=C(O[C@@H]1Cc2c(O)cc(O)cc2O[C@@H]1c1cc(O)c(O)c(O)c1)c1cc(O)c(O)c(O)c1 [EPIGALLOCATECHIN-3-MONOGALLATE] | 45.2 µM | 63.3 µM | < 9.85 µM | < 9.85 µM
CC[C@H]1OC(=O)[C@H](C)[C@@H](O[C@H]2C[C@@](C)(OC)[C@@H](O)[C@H](C)O2)[C@H](C)[C@@H](O[C@@H]2O[C@H](C)C[C@H](N(C)C)[C@H]2O)[C@](C)(O)C[C@@H](C)C(=O)[C@H](C)[C@@H](O)[C@]1(C)O [ERYDERM] | < 9.85 µM | < 9.85 µM | < 9.85 µM | < 9.85 µM
